Key:
Format in all cases: in vivo
[1] = tested on: barley plants ('Hispanic'); test: Barley field seed production without irrigation; conditions: no external irrigation
Procedure: In order to determine the drought or drought stress tolerance after seed treatments with TMAO di-hydrate and germination in the presence of TMAO di-hydrate, barley “Hispanic” seeds, corn “FAO700” seeds, and “Sambro” sunflower seeds were surface sterilized for 3 minutes in ethanol 70%, then rinsed twice and finally included in a pre-treatment solution of 1 g/L TMAO di-hydrate solution (or just water) under shaking for 3 hours at a dose of 1 litre per Kg of seeds. Then, the seeds were sown in randomized plots of 10 sqm in a surface of 2.000 sqm. Chlorophyll content was measured 1 month before harvest. In corn irrigation was applied in half of the plots while the other half only received an initial establishment watering. The barley plots received 200 l of rain per m^2 through the growing season. Some of the plots received a second spray treatment with 1 g/liter of TMAO. […] At least 3 independent plants were treated per experiment.
TMAO di-hydrate applied exogenously which increases the endogenous content of TMAO as if the plants were overexpressing an FMO protein at least 4 times increases seed production in barley grown in the field without irrigation. ‘Hispanic” barley seeds were sown, grown and treated as described. Both, seed treatments (each Kg of seed was soaked in 1 liter of a 1 g/1 L TMAO di-hydrate solution, although smaller volumes of this solution are also effective) and a combination of seed and spray treatments with 1 g/L TMAO di-hydrate increased plant grain production. The field experienced 200 l/m^2 of rain water in total through the season.

leek plants = test: Yield production without drought stress, leek; conditions: 1 g/l spray every 4 weeks for 3 months, no drought stress
Procedure: (§1) In order to determine the plant yield productivity under normal conditions, ‘Sabrina’, ‘Candonga’ and ‘Fortuna’ strawberry varieties, leek, lettuce, “Iceberg” variety, broccoli “Parthenon” variety, celery or kohlrabi plants, were grown under standard production conditions and 120 plants of each variety per treatment (where the treatment was a control comprising standard watering or 1 g/L of TMAO di-hydrate spray every four weeks) were analyzed. Plants were located in four (4) different positions for each group of 30 plants from the same treatment. Fruits, leaves or roots were harvested from individual plants and total weight was determined for each plant.
Root or leaves yield was determined in the plants treated with 1 g/l of TMAO di-hydrate or water as described above in order to evaluate the trade-off costs of the treatment with no drought stress.

[2] = tested on: strawberry plants ('Sabrina', 'Candonga', 'Fortuna'); test: Strawberry fruit production without drought stress (trade-off); conditions: no drought stress; for Strawberry fruit production, % Control (2013) / Strawberry fruit production, % Control (2014): 1 g/l spray every 4 weeks for 3 months
Procedure: as §1
Fruit yield was determined in ‘Sabrina’, ‘Candonga’ and ‘Fortuna’ strawberry plants treated with 1 g/l of TMAO di-hydrate or water as described above in order to evaluate the trade-off costs of the treatment with no drought stress.

[3] = tested on: tomato plants ('Moneymaker'); test: Tomato stem size under limited water irrigation
Procedure: For each drought or limited water experiment 480 seeds (of either pepper, barley, tomato, cucumber or corn) were sown, producing 384 plants in 512 cm^3 pots (4 plants per pot). Plants were grown under chamber conditions at 21° C. for 3 weeks. Then, the plants were moved to a greenhouse, where average temperature was 25° C. to 28° C. Spray and irrigation treatments as described herein were done when the plants had two extended leaves and the next pair of leaves were coming up.
Treatments: Twelve pots (containing 48 plants) were irrigated with 40 ml of either: water, 0.1 g/L TMAO di-hydrate solution, 1.0 g/L TMAO di-hydrate solution, or 5.5 g/L TMAO di-hydrate solution. Another set of 12 pots containing 48 plants were sprayed with 40 ml of either water (3.3 ml in average per pot), a solution containing 0.1 g/L TMAO di-hydrate solution, 1.0 g/L TMAO di-hydrate, or 5 g/L, or 10 g/L TMAO di-hydrate. Further sets of 12 pots containing 48 plants were both sprayed with each initial solution TMAO di-hydrate solution and further irrigated with the same TMAO di-hydrate solutions used in the control water sprayed plants. All pots were also watered with 40 ml of water. The sprayed plants were watered with the same volume of water as the “irrigated plants). The pots were located on plastic glass to maintain constant moisture and to avoid liquid spillage during watering. Trays containing the pots were located on greenhouse tables. The distribution of the trays on the table and the position on the pots in the tray was changed every week to avoid position effects.
After the treatments described above, for the “limited water” experiments plants were watered with 20 ml of water or solution instead of 40 ml when the first plants started to wilt. The stem length was recorded as analyzed for the limited water experiments in which the plants are watered with 50-30% of the water that the plant requires.
TMAO di-hydrate applied exogenously which increases the endogenous content of TMAO as if the plants were overexpressing an FMO protein at least 4 times increases plant stem size in tomato under limited water irrigation. ‘Moneymaker’ tomato seeds were sown, grown and treated as described.

[4] = tested on: broccoli plants (Parthenon); test: Broccoli inflorescence fresh weight with constant TMAO irrigation; conditions: 100% water; constant irrigation with 1 g/L
Description: TMAO di-hydrate applied exogenously which increases the endogenous content of TMAO as if the plants were overexpressing an FMO protein at least 4 times increases plant production in broccoli. Parthenon broccoli seeds were sown, grown and treated as described above. Constant irrigation with 1 g/L TMAO di-hydrate increased plant inflorescence production.

[5] = 1 g TMAO/1 Kg seed + 1 g/L spray

C[N+](C)(C)[O-].O.O [TMAO di-hydrate, trimethylamine N-oxide di-hydrate]
% Control (seed production) ([1]; 1 g TMAO/1 Kg seed): 18%
Average number of Grams per square meter (seed production) ([1]; 1 g TMAO/1 Kg seed): 225.98 ± 11.89 Grams per square meter
% Control (seed production) [1, 5]: 35%
Average number of Grams per square meter (seed production) [1, 5]: 256.36 ± 12.78 Grams per square meter
Yield production, % Control (leek plants): 102%
difference in fruit production versus water-treated plants ([2]; 1 g/l): no significant difference
Strawberry fruit production, % Control (2013) ([2]; Candonga): 102%
Strawberry fruit production, % Control (2014) ([2]; Candonga): 106%
Strawberry fruit production, % Control (2013) ([2]; Fortuna): 101%
Strawberry fruit production, % Control (2014) ([2]; Fortuna): 105%
Strawberry fruit production, % Control (2013) ([2]; Sabrina): 106%
Strawberry fruit production, % Control (2014) ([2]; Sabrina): 115%
Strawberry fruit production, % Control (2013) ([2]; Total of varieties): 105%
Strawberry fruit production, % Control (2014) ([2]; Total of varieties): 111%
AVERAGE STEM SIZE (cm) ([3]; initial treatment 0.1 g/L, irrigations 1 g/L): 12.32 ± 0.56 cm
AVERAGE STEM SIZE (cm) ([3]; initial treatment 0.1 g/L, irrigations water): 11.06 ± 0.55 cm
AVERAGE STEM SIZE (cm) ([3]; initial treatment 1 g/L, irrigations 1 g/L): 13.77 ± 0.55 cm
AVERAGE STEM SIZE (cm) ([3]; initial treatment 1 g/L, irrigations water): 11.59 ± 0.55 cm
AVERAGE STEM SIZE (cm) ([3]; initial treatment 5 g/L, irrigations 1 g/L): 14.6 ± 0.55 cm
AVERAGE STEM SIZE (cm) ([3]; initial treatment 5 g/L, irrigations water): 14.2 ± 0.56 cm
AVERAGE STEM SIZE (cm) ([3]; initial treatment water, irrigations 1 g/L): 12.97 ± 0.55 cm
AVERAGE FRESH WEIGHT (GRAMS) PER INFLORESCENCE [4]: 220.2 ± 16.6 GRAMS
increase of broccoli inflorescence fresh weight [4]: 70%

From US20160237450A1, “METHOD FOR ENHANCING DROUGHT TOLERANCE IN PLANTS” (Plant Response Biotech S.L., priority 2015, published 2016)
